Legend:
[1] = Spraying coated dispersion with water solutions (cospraying); type: physicochemical; conditions: water solution of the compound sprayed on knife coated dispersion of Example 9B
Description: For an ionic dispersion, a solution containing polyion of the opposite charge can be applied to the film to create an instantaneous tack-free film. For example, an anionic dispersion can be coated and before it has formed a film, a solution containing polyvalent cation is sprayed on the coating's surface to yield a tack free film. This method is commonly referred to as “cospraying.” A preferred solution contains water and metal cations, such as calcium and magnesium. Preferably, the film becomes tack free almost instantaneously after spraying the water solution (i.e., within a minute, preferably within a few seconds). In applications where very rapid tack-free times are required, such as in preoperative preparation for surgery, it may be beneficial to mist or otherwise wet the surface of the film. By “tack-free,” it is generally meant that the misted film contains little or no adhesion to other substrates at ambient conditions, typically from about 20° to 30° C.
The dispersions of Example 9B we knife coated onto a polypropylene coated paper release liner and sprayed with water solutions containing the following materials. The film appearance was recorded in the Result column.

[2] = Stability of dispersions on storage / standing; type: physicochemical; conditions: Example 6 dispersions
Method: The particle size of certain dispersions was measured on a Coulter LS 100 laser Particle Size Analyzer equipped with a microvolume module. Usually, the particle size was measured one day after dispersions were made. The particle size was measured again about 30 days after the dispersions were made. During this period, the dispersions were sealed and stored at room temperature. Samples were diluted in the same solvent mixture as the original dispersion to make the measurement. The results are shown in Table 2 below, which indicate that the dispersions have mean particle sizes generally under about 5 to 6 micrometers (μm). All dispersions appear to be stable after about 30 days.
After adding the prepolymer, each example was adjusted to a pH of about 7.0. To Example 2B was added a 40% solids, water based polyurethane pressure sensitive adhesive (PSA) (WD4006 from H.B. Fuller, St. Paul, Minn.). The PSA was added to increase adhesion to skin. The PSA was added to the alcohol-water solvent system prior to prepolymer addition. The EDA was added and the reaction mixture stirred at high speed for 20 minutes. Stable dispersions were obtained in call cases.
The dispersions with and without iodine anti-microbial agents were applied to human skin in small patches and allowed to dry. Adhesion was very good for all samples.

Compound | Result (film appearance) [1] | stability of anti-microbial agent in the dispersions upon standing [2]
[Ca+2].[Cl-].[Cl-] [Calcium chloride] | Almost instantaneous tack-free film. | 
O=C([O-])CC(O)(CC(=O)[O-])C(=O)[O-].O=C([O-])CC(O)(CC(=O)[O-])C(=O)[O-].[Ca+2].[Ca+2].[Ca+2] [Calcium Citrate] | No effect | 
povidone-iodine |  | split out of the dispersions as a separate phase upon standing
[Cl-].[Na+] [Sodium Chloride] | Random coagulation. | 

Reference: patent publication US6605666B1, “Polyurethane film-forming dispersions in alcohol-water system” (3M Innovative Properties Company, priority 2000, dated 2003)
